Experimental data published in PMC10218498, “Exploring BenzylethoxyAryl Urea Scaffolds for Multitarget Immunomodulation Therapies” (International Journal of Molecular Sciences, 2023).
Like-named read-outs stand apart in the source and are kept apart here.

Columns and labels:
[1] = tested on: HT-29 (colon adenocarcinoma); assay: MTT cell proliferation assay, HT-29; type: cell-based, human; details: for IC50: Homo sapiens, read-out: IC50 HT-29; for SI (HT-29) (IC50HEK293/IC50HT-29): selectivity index
Procedure: (§1) The 3-(4,5-dimethylthiazol-2-yl)-2,5-diphenyltetrazolium bromide (MTT; Sigma Chemical Co.) dye reduction assay in 96-well microplates was used. […] After that, the supernatant was discarded and replaced by 100 µL of DMSO to dissolve formazan crystals. The absorbance was then read at 550 nm by spectrophotometry. For all concentrations of compound, cell viability was expressed as the percentage of the ratio between the mean absorbance of treated cells and the mean absorbance of untreated cells. Three independent experiments were performed, and the IC50 values (i.e., concentration half inhibiting cell proliferation) were graphically determined using GraphPad Prism 4 software.

VEGFR-2 = VEGFR-2 (Homo sapiens, UniProt P35968); assay: VEGFR-2 relative quantification by flow cytometry in A-549; type: cell-based; design: Both membrane and total PD-L1 and VEGFR-2 were relatively determined using DMSO-treated cells as a negative control; endogenous in cells; host or cells: A-549; details: A-549, 20 µM, 24 h, relative to DMSO control = 100
Chain of VEGFR-2 (P35968 20-1356): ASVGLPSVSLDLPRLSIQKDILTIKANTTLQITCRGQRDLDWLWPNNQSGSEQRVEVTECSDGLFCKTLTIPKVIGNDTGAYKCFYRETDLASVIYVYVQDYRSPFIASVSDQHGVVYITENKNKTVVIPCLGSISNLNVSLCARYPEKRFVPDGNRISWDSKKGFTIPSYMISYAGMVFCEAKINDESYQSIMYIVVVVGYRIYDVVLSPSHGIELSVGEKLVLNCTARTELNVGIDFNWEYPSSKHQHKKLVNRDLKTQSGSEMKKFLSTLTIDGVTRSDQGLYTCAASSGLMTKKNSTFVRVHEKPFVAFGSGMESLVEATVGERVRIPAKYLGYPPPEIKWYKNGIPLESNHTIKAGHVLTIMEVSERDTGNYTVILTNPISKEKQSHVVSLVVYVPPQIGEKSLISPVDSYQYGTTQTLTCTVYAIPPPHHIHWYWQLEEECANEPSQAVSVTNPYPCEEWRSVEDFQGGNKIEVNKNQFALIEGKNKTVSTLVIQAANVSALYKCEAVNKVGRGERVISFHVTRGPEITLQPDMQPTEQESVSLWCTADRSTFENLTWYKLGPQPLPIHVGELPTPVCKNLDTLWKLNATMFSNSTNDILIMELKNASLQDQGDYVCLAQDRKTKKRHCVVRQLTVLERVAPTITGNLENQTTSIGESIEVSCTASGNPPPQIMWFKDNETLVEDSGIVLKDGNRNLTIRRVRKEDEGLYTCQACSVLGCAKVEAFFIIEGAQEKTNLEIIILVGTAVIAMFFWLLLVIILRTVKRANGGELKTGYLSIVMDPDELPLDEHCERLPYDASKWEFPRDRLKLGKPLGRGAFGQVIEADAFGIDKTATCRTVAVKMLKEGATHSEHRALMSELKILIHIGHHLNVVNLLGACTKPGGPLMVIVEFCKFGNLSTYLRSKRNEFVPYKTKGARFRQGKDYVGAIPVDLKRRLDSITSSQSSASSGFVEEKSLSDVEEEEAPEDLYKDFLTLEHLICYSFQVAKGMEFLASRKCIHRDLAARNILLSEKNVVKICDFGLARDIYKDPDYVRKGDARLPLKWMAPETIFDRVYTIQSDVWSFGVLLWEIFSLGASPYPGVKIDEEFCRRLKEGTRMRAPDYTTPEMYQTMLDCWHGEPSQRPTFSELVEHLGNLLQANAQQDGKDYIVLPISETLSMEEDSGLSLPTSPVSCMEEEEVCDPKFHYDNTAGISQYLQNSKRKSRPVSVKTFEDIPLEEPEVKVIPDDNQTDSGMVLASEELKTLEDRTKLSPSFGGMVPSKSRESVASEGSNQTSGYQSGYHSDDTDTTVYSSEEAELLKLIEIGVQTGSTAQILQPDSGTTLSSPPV
Procedure: For these assays, cells were incubated for 24 h in the presence of the corresponding compounds at 20 µM concentration.
(§2) To study the effect of the compounds on every biological target in cancer cell lines, the compounds were used at 20 µM dose.
(§3) For the assay, 10^5 cells per well were incubated for 24 h with the corresponding dose of the tested compound in a total volume of 500 μL of their growth media.
On the one hand, to detect total PD-L1 and VEGFR-2, after the cell treatments, they were collected and fixed with 4% in PBS paraformaldehyde.
(§4) On the other hand, to detect membrane PD-L1 and VEGFR-2, the process was the same, avoiding the treatment with 0.5% in PBS TritonTM X-100 step.

[2] = tested on: A-549 (pulmonary adenocarcinoma); assay: MTT cell proliferation assay, A-549; type: cell-based, human; details: for IC50: Homo sapiens, read-out: IC50 A-549; for SI (A-549) (IC50HEK293/A-549): selectivity index
Procedure: as §1

PD-L1 [3] = target: T1, PD-L1 (Homo sapiens, UniProt Q9NZQ7); assay: PD-L1 relative quantification by flow cytometry in HT-29; type: cell-based; design: endogenous in cells; host or cells: HT-29; details: 24 h; for Total PD-L1 (%): relative to DMSO control = 100; for inhibition at 20 µM: read-out: inhibition rate of PD-L1
T1 sequence (Q9NZQ7 19-290): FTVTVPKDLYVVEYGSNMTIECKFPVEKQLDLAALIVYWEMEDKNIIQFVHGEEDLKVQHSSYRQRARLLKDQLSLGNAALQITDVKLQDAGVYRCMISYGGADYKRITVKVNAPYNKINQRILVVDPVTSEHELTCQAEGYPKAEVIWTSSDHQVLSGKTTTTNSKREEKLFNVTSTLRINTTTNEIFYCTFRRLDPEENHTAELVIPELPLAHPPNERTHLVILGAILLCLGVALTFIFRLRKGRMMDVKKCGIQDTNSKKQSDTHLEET
Procedure: To assess the effect of the selected compounds on the biological targets PD-L1 and VEFGR-2, we performed the study on both cancer cell lines HT-29 and A-549 and by flow cytometry technique. […] For these assays, cells were incubated for 24 h in the presence of the corresponding compounds at 20 µM concentration.
as §2, §3
(§5) On the one hand, to detect total PD-L1 and VEGFR-2, after the cell treatments, they were collected and fixed with 4% in PBS paraformaldehyde. After fixation, a treatment with 0.5% in PBS TritonTM X-100 was performed, and finally, cells were stained with FITC Mouse monoclonal Anti-Human VEGFR-2 (ab184903) and Alexa Fluor® 647 Rabbit monoclonal Anti-PD-L1 (ab215251).
as §4

[4] = tested on: MCF-7 (Human breast cancer adenocarcinoma); assay: MTT cell proliferation assay, MCF-7; type: cell-based; details: for IC50: Homo sapiens; for SI (MCF-7): selectivity index vs HEK-293
Procedure: as §1

PD-L1 [5] = target: T1, PD-L1; assay: PD-L1 relative quantification by flow cytometry in MCF-7; type: cell-based; design: endogenous in cells; host or cells: MCF-7; details: MCF-7, 20 µM, 24 h; for % PD-L1 Memb. / % PD-L1 Total: control = 100
Procedure: In view of the good results obtained for these selected compounds, we decided to extend the study to a third cancer cell line, MCF-7 (Human breast cancer adenocarcinoma). First, we determined the IC50 values of the derivatives and their SI indexes (see Table 4). Then, we determined the effect of the selected compounds on the biological targets, PD-L1 and VEGFR-2, by flow cytometry. […] As usually, the assay was performed at a concentration of 20 µM for 24 h.
as §2, §3, §5, §4

ZAP70 = assay: Immunoblotting of OT-1 CTL signaling proteins: ZAP70; type: cell-based, mice; details: OT-1, 20 μM, 24 h
Source text: We next studied the effect of our compounds on the signaling cascade downstream of the TCR. […] However, both the expression and phosphorylation of LCK were increased in response to all compounds. The effects on ZAP70 and LAT were more complex, with opposing effects on total protein expression versus phosphorylation. Thus, all compounds modulated signaling downstream of the TCR in a manner that is likely to impact T-cell activation and activity.
CD8+ cells were obtained from the inguinal, axillary, brachial, and mesenteric lymph nodes previously collected from OT-1 mice. Lymph node cells were isolated by mashing through a […] cell strainer. Cells were resuspended in IMDM cell media at a concentration of 0.3 million cells/mL. N4 ovalbumin peptide was added at a concentration of 10 nM, and cells were incubated for 48 h at 5% CO2, 37 °C. On day 2 from recollection, cells were pelleted at 1300 rpm for 5 min and washed with PBS to remove N4 peptide. The cell pellet was resuspended in fresh IMDM media in a new flask in a 0.3 million cells/mL and supplemented with IL-2 at 20 ng/mL. After incubation for a further 48 h (day 4), cells were re-seeded in fresh IMDM media at a concentration of 0.3 million cells/mL supplemented with IL-2 at 20 ng/mL. Cells were cultured for a further 48 h prior to use on day 6 in functional assays.
To study the effect of the compounds in the signaling pathway of CTLs, the compound was incubated for 24 h at 20 μM. After this time, cells were collected and washed twice in PBS and lysed in radioimmunoprecipitation assay (RIPA) lysis buffer (50 mM tris-HCl at pH 7.4, 150 mM sodium chloride, 5 mM EGTA, 0.1% SDS, 1% NP-40, and 1% deoxycholate) supplemented with a protease and phosphatase inhibitor cocktail (mini complete ULTRA Protease tablet and phosSTOP tablet from Roche, Basel, Switzerland). Lysates were clarified by high-speed centrifugation (17,000 rpm for 15 min at 4 °C). Protein concentration was measured using a Micro BCA Protein Assay (Thermo Scientific, Waltham, MA, USA), and 10 μg to 30 μg of total protein were supplemented with 2X SDS sample buffer [tris (pH 6.8), 20% glycerol, 5% SDS, b-mercaptoethanol, and bromophenol blue) and boiled at 95 °C for 5 min. […] Bound Ab was detected by incubation with anti-rabbit and anti-mouse horseradish peroxidase secondary Ab (Cell Signaling Technology) and visualized using the Bio-Rad ChemiDoc MP Imaging System.

[6] = MCF7, MTT, read-out: IC50 (μM) MCF-7

| SMILES | IC50 ([1]; HT-29, MTT, 48 h of treatment) | SI (HT-29) (IC50HEK293/IC50HT-29) [1] | Total VEGFR-2 (%) (VEGFR-2) | IC50 ([2]; A549, MTT, 48 h of treatment) | SI (A-549) (IC50HEK293/A-549) [2] | Total PD-L1 (%) (PD-L1 [3]; HT-29, 20 µM) | IC50 [4, 6] | SI (MCF-7) [4] | % PD-L1 Memb. (PD-L1 [5]) | % PD-L1 Total (PD-L1 [5]) | inhibition at 20 µM (PD-L1 [3]; HT-29, HT-29, 20 µM) | ZAP-70 protein expression (Western blot quantification) (ZAP70) | pZAP-70 protein expression (Western blot quantification) (ZAP70) | inhibition rate of PD-L1 (PD-L1 [3]; HT-29, 20 µM) | inhibition at 20 µM (PD-L1 [5]; MCF7, read-out: inhibition rate for total PD-L1) | IC50 ([1]; HT-29, 48 h) | IC50 ([2]; A549, 48 h) | inhibition at 20 µM (PD-L1 [3]; HT-29, 20 µM) | IC50 ([4]; MCF7, read-out: IC50 (μM) MCF-7) |
| --- | --- | --- | --- | --- | --- | --- | --- | --- | --- | --- | --- | --- | --- | --- | --- | --- | --- | --- | --- |
| Cc1c(COc2ccc(CN3CCCCC3C(=O)O)cc2Br)cccc1-c1ccccc1 (centres unmarked) [BMS-8, reference compound] | 19 ± 2 µM | 3 | 122 ± 13% | 6 ± 1 µM | 10 | 82 ± 21% | 20 ± 3 µM | 3 | 88 ± 11% | 197% | – | – | – | – | – | – | – | – | – |
| COc1ccc(COc2cccc(NC(=O)Nc3ccc(F)cc3)c2)cc1 [Compound 2] | 5.5 ± 1.2 µM | >18 | 97 ± 12% | 3.4 ± 0.8 µM | >29 | 71 ± 15% | 0.17 ± 0.03 µM | >580 | 81 ± 10% | 62 ± 15% | ~50% | 34 | 88 | – | – | – | – | – | – |
| COc1ccc(COc2cccc(NC(=O)Nc3ccc(Br)cc3)c2)cc1 [Compound 8] | 11 ± 1 µM | >9 | 141 ± 13% | 1.6 ± 0.8 µM | >62 | 40 ± 2% | 1.3 ± 0.4 µM | >77 | 94 ± 12% | 87 ± 23% | ~60% | 37 | 74 | – | – | – | – | – | – |
| COc1ccc(COc2cccc(NC(=O)Nc3ccc(OC)cc3)c2)cc1 [Compound 11] | 2 ± 1.2 µM | >50 | 143 ±10% | 12 ± 1 µM | >9 | 118 ± 3% | > 200 µM | – | 100 ± 7% | 57 ± 15% | – | 38 | 77 | no inhibitory effect | ~40% | – | – | – | – |
| COc1ccc(COc2cccc(NC(=O)Oc3ccccc3)c2)cc1 [Compound 14] | – | >15 | 107 ± 18% | – | >27 | 68 ± 5% | – | >5 | 81 ± 8% | 85 ± 15% | – | 54 | 108 | – | – | 6.8 ± 0.5 µM | 3.7 ± 0.5 µM | ~40% | 20 ± 9 µM |
